Measurements taken from ChEMBL document CHEMBL1155606, “Stolonic acids A and B, new cytotoxic cyclic peroxides from an Indian Ocean ascidian Stolonica species” (J Nat Prod, 2000).
Converted amounts (≈) assume the structure as drawn.

Columns and labels:
OVCAR-3 = experiment: Cytotoxicity against human OVCAR-3 cells after 48 hrs; type: functional, cell-based; conditions: OVCAR-3, 48 h
[1] = Cytotoxicity against human LOX cells after 48 hrs; type: functional, cell-based

CCCC/C=C\C=C/CCCCCCCC[C@@H]1CC[C@@H]([C@@H]2CC[C@@H](CC(=O)O)OO2)O1 [STOLONIC ACID B]
IC50 (OVCAR-3): 0.1 µg/mL (≈ 0.229 µM) | IC50 [1]: 0.05 µg/mL (≈ 0.115 µM)

CCCC/C=C/C=C/CCCCCCCC[C@@H]1CC[C@@H]([C@@H]2CC[C@@H](CC(=O)O)OO2)O1 [STOLONIC ACID A]
IC50 (OVCAR-3): 0.1 µg/mL (≈ 0.229 µM) | IC50 [1]: 0.05 µg/mL (≈ 0.115 µM)
